Assay type in all cases: in vivo
Data set [1] has as its system Echinochloa oryzacola Vasing. The data set can be described thus: Test Example 1: herbicidal activity, application before weed generation in submerged conditions (symbol A). The note with it: application herbicide amount 320 g/ha. Summed up:
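Pre-emergence, paddy conditions: emulsifiable formulation diluted in water, dosed onto floodwater (4 cm depth) on sowing day. Alluvial soil; weeds sown mixed; rice transplanted at 2.5-leaf stage. Greenhouse 25–30 °C, 3 wk. Score 0–5 (5 = ≥90% kill, 0 = ≤5%).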

Another data set relates to Cyperus difformis. In words: Test Example 3: herbicidal effect by foliage application, Wagner pot (symbol E). The note with it: application herbicide amount 320 g/ha. Put shortly:
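The compound, formulated as an emulsion and diluted with water to a predetermined rate, is applied uniformly to leaves of two-week-old seedlings growing in submerged alluvial soil at 25–30 °C. Rice is included. Each plant is assessed 3 weeks later using defined criteria.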

Data set [2] has as its system Setaria viridis. The data set can be described thus: Test Example 4: herbicidal effect by soil treatment (symbol G). To be noted: 320 g/ha. Put shortly:
(§1)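 Seeds were sown in sterilized diluvial soil, covered with about 1.5 cm of soil, and the soil surface was sprayed with a water-diluted emulsion of the compound at a predetermined rate. Plants grew in a greenhouse at 25° C. to 30° C.; effects were scored visually 3 weeks after application.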

The test system of data set [3] is Alopecurus myosuroides. In words: Test Example 4: herbicidal effect by soil treatment (symbol J). To be noted: 320 g/ha. Summed up: as §1
The subject of data set [4] is Lolium multiflorum Lam. The data set can be described thus: Test Example 4: herbicidal effect by soil treatment (symbol K). To be noted: 320 g/ha. Summed up:
as §1

For another data set, the system named is Apera spica-venti. In words: Test Example 4: herbicidal effect by soil treatment (symbol L). The note with it: 320 g/ha. Put shortly: as §1
For another data set, the system named is Galium spurium. In words: Test Example 4: herbicidal effect by soil treatment (symbol Q). The note with it: 320 g/ha. Put shortly:
as §1

Data set [5] relates to Veronica persica. The data set can be described thus: Test Example 4: herbicidal effect by soil treatment (symbol R). To be noted: 320 g/ha. Put shortly:
as §1

For a further data set, the system named is corn. The data set can be described thus: Test Example 4: effect on crop by soil treatment (symbol c). To be noted: 320 g/ha. Put shortly:
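Soil-treatment setup: crop and weed seeds were spot-sown into sterilized diluvial soil, then buried beneath approximately 1.5 cm of it, and the boxes were housed in a 25–30° C. greenhouse.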

The subject of data set [6] is soybean. In words: Test Example 4: effect on crop by soil treatment (symbol d). The note with it: 320 g/ha. Summed up:
(§2)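 Plants are raised in a greenhouse (25° C. to 30° C.) from spot-sown seed, which sits under about 1.5 cm of sterilized diluvial soil in a box shared with weed species.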

Another data set relates to rice. The data set can be described thus: Test Example 4: effect on crop by soil treatment (symbol b). To be noted: 320 g/ha. Put shortly:
as §2

A further data set concerns wheat. In words: Test Example 4: effect on crop by soil treatment (symbol e). To be noted: 320 g/ha. Summed up: as §2
Data set [7] concerns Setaria viridis. In words: Test Example 5: herbicidal effect by foliage application, plastic box (symbol G). To be noted: 320 g/ha, 3 weeks after application. Summed up:
(§3)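 Greenhouse foliar test: seedlings at 14 days, grown 25° C. to 30° C. in sterilized diluvial soil; compound applied as an aqueous dilution of an emulsion; response read 3 weeks after spraying.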

A further data set deals with Avena fatua. In words: Test Example 5: herbicidal effect by foliage application, plastic box (symbol I). To be noted: 320 g/ha, 3 weeks after application. Put shortly:
as §3

Data set [8] deals with Alopecurus myosuroides. In words: Test Example 5: herbicidal effect by foliage application, plastic box (symbol J). To be noted: 320 g/ha, 3 weeks after application. Summed up: as §3
Data set [9] has as its system Lolium multiflorum Lam. The data set can be described thus: Test Example 5: herbicidal effect by foliage application, plastic box (symbol K). To be noted: 320 g/ha, 3 weeks after application. Put shortly:
as §3

The next data set deals with Amaranthus retroflexus. In words: Test Example 5: herbicidal effect by foliage application, plastic box (symbol N). To be noted: 320 g/ha, 3 weeks after application. Put shortly:
as §3

The test system of data set [10] is Veronica persica. The data set can be described thus: Test Example 5: herbicidal effect by foliage application, plastic box (symbol R). The note with it: 320 g/ha, 3 weeks after application. Summed up:
as §3

In data set [11] the test system is soybean. In words: Test Example 5: effect on crop by foliage application, plastic box (symbol d). The note with it: 320 g/ha, 3 weeks after application. Put shortly:
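Plants were raised from seed in a greenhouse (25° C. to 30° C.) after sowing in a plastic box of sterilized diluvial soil.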

As to `COC(=O)c1ccc(CON=C(C)CC2CC(O)=C(c3c(C)cc(C)cc3C)C2=O)cc1` (stereo not drawn) [1-118], in data set [1], the “Herbicidal effect grade, A: Echinochloa oryzacola Vasing.” value is recorded as 5 (Herbicidal ratio of 90% or more (almost completely withered)). In the data set on Cyperus difformis, the “herbicidal effect on E, grade 0-5” value is listed as 0 (Herbicidal ratio of 5% or lower (almost no effect)). In addition, the “G: Setaria viridis, herbicidal effect grade” value in the data set with Setaria viridis [2] is 2 (Herbicidal ratio of 20% or higher and lower than 40%). The “J: Alopecurus myosuroides, herbicidal effect grade” value in the data set on Alopecurus myosuroides [3] was 3 (Herbicidal ratio of 40% or higher and lower than 70%). The “K: Lolium multiflorum Lam., herbicidal effect grade” value with Lolium multiflorum Lam. [4] was 3 (Herbicidal ratio of 40% or higher and lower than 70%). Moreover, the “L: Apera spica-venti, herbicidal effect grade” value (“L: Apera spica-venti” below) in the data set on Apera spica-venti is 3 (Herbicidal ratio of 40% or higher and lower than 70%). The “Q: Galium spurium, herbicidal effect grade” value (from here on “Q: Galium spurium”) with Galium spurium is given as 0 (Herbicidal ratio of 5% or lower (almost no effect)). In addition, in the data set on Veronica persica [5], the “R: Veronica persica, herbicidal effect grade” value is recorded as 0 (Herbicidal ratio of 5% or lower (almost no effect)). The “c: corn, effect grade on crop” value with corn is given as 0 (Herbicidal ratio of 5% or lower (almost no effect)). Further, the “d: soybean, effect grade on crop” value with soybean [6] was 0 (Herbicidal ratio of 5% or lower (almost no effect)). Also, the “b: directly sowed rice plant, effect grade on crop” value (“b: directly sowed rice plant” below) with rice was 5 (Herbicidal ratio of 90% or more (almost completely withered)). In addition, the “e: wheat, effect grade on crop” value in the data set with wheat is 0 (Herbicidal ratio of 5% or lower (almost no effect)). Further, the “G: Setaria viridis, herbicidal effect (criteria 0-5)” value (“G: Setaria viridis … (criteria 0-5)” below) with Setaria viridis [7] is listed as 0 (Herbicidal ratio of 5% or lower (almost no effect)). Moreover, the “I: Avena fatua, herbicidal effect (criteria 0-5)” value (“I: Avena fatua, herbicidal effect” for short) with Avena fatua is 3 (Herbicidal ratio of 40% or higher and lower than 70%). Besides, the “J: Alopecurus myosuroides, herbicidal effect (criteria 0-5)” value in the data set on Alopecurus myosuroides [8] was 4 (Herbicidal ratio of 70% or higher and lower than 90%). The “K: Lolium multiflorum Lam., herbicidal effect (criteria 0-5)” value with Lolium multiflorum Lam. [9] was 5 (Herbicidal ratio of 90% or more (almost completely withered)). For the same compound, the “N: Amaranthus retroflexus, herbicidal effect (criteria 0-5)” value (“N: Amaranthus retroflexus” below) in the data set on Amaranthus retroflexus was 0 (Herbicidal ratio of 5% or lower (almost no effect)). Moreover, in the data set on Veronica persica [10], the “R: Veronica persica, herbicidal effect (criteria 0-5)” value (“R: Veronica persica … (criteria 0-5)” for short) was 3 (Herbicidal ratio of 40% or higher and lower than 70%). Besides, the “d: soybean, effect on crop (criteria 0-5)” value (shortened to “d: soybean, effect on crop”) with soybean [11] is 0 (Herbicidal ratio of 5% or lower (almost no effect)).

For `CC(CC1CC(O)=C(c2c(C)cc(C)cc2C)C1=O)=NOCc1cccc(C(F)(F)F)c1` (stereo not drawn) [1-117], in data set [1], the “Herbicidal effect grade, A: Echinochloa oryzacola Vasing.” value is recorded as 5 (Herbicidal ratio of 90% or more (almost completely withered)). For the same compound, in the data set on Cyperus difformis, the “herbicidal effect on E, grade 0-5” value is listed as 5 (Herbicidal ratio of 90% or more (almost completely withered)). For the same compound, the “G: Setaria viridis, herbicidal effect grade” value in the data set with Setaria viridis [2] is on record as 5 (Herbicidal ratio of 90% or more (almost completely withered)). Further, the “J: Alopecurus myosuroides, herbicidal effect grade” value with Alopecurus myosuroides [3] is 4 (Herbicidal ratio of 70% or higher and lower than 90%). In the data set with Lolium multiflorum Lam. [4], the “K: Lolium multiflorum Lam., herbicidal effect grade” value was 4 (Herbicidal ratio of 70% or higher and lower than 90%). The “L: Apera spica-venti” value in the data set with Apera spica-venti is listed as 5 (Herbicidal ratio of 90% or more (almost completely withered)). Also, the “Q: Galium spurium” value in the data set with Galium spurium is listed as 0 (Herbicidal ratio of 5% or lower (almost no effect)). The “R: Veronica persica, herbicidal effect grade” value in the data set with Veronica persica [5] is recorded as 0 (Herbicidal ratio of 5% or lower (almost no effect)). Moreover, the “c: corn, effect grade on crop” value in the data set on corn is 0 (Herbicidal ratio of 5% or lower (almost no effect)). Moreover, in the data set on soybean [6], the “d: soybean, effect grade on crop” value is 0 (Herbicidal ratio of 5% or lower (almost no effect)). Moreover, in the data set with rice, the “b: directly sowed rice plant” value is listed as 5 (Herbicidal ratio of 90% or more (almost completely withered)). Further, in the data set on wheat, the “e: wheat, effect grade on crop” value is on record as 0 (Herbicidal ratio of 5% or lower (almost no effect)). Moreover, the “G: Setaria viridis … (criteria 0-5)” value in the data set with Setaria viridis [7] is 5 (Herbicidal ratio of 90% or more (almost completely withered)). The “I: Avena fatua, herbicidal effect” value in the data set with Avena fatua was 5 (Herbicidal ratio of 90% or more (almost completely withered)). For the same compound, in the data set on Alopecurus myosuroides [8], the “J: Alopecurus myosuroides, herbicidal effect (criteria 0-5)” value is 5 (Herbicidal ratio of 90% or more (almost completely withered)). Further, the “K: Lolium multiflorum Lam., herbicidal effect (criteria 0-5)” value in the data set on Lolium multiflorum Lam. [9] is given as 5 (Herbicidal ratio of 90% or more (almost completely withered)). For the same compound, in the data set on Amaranthus retroflexus, the “N: Amaranthus retroflexus” value is 1 (Herbicidal ratio of 5% or higher and lower than 20%). For the same compound, in the data set on Veronica persica [10], the “R: Veronica persica … (criteria 0-5)” value was 3 (Herbicidal ratio of 40% or higher and lower than 70%). Further, the “d: soybean, effect on crop” value in the data set on soybean [11] is given as 0 (Herbicidal ratio of 5% or lower (almost no effect)).

As to `CC(CC1CC(O)=C(c2c(C)cc(C)cc2C)C1=O)=NOCC(C)Cl` (stereo not drawn) [1-121], the “Herbicidal effect grade, A: Echinochloa oryzacola Vasing.” value in data set [1] is 5 (Herbicidal ratio of 90% or more (almost completely withered)). Moreover, the “herbicidal effect on E, grade 0-5” value in the data set on Cyperus difformis was 4 (Herbicidal ratio of 70% or higher and lower than 90%). For the same compound, in the data set with Setaria viridis [2], the “G: Setaria viridis, herbicidal effect grade” value was 5 (Herbicidal ratio of 90% or more (almost completely withered)). Moreover, the “J: Alopecurus myosuroides, herbicidal effect grade” value with Alopecurus myosuroides [3] was 5 (Herbicidal ratio of 90% or more (almost completely withered)). Also, the “K: Lolium multiflorum Lam., herbicidal effect grade” value in the data set on Lolium multiflorum Lam. [4] was 5 (Herbicidal ratio of 90% or more (almost completely withered)). The “L: Apera spica-venti” value in the data set on Apera spica-venti is recorded as 5 (Herbicidal ratio of 90% or more (almost completely withered)). Further, the “Q: Galium spurium” value in the data set on Galium spurium is given as 0 (Herbicidal ratio of 5% or lower (almost no effect)). The “R: Veronica persica, herbicidal effect grade” value in the data set on Veronica persica [5] is given as 0 (Herbicidal ratio of 5% or lower (almost no effect)). Besides, the “c: corn, effect grade on crop” value in the data set on corn was 1 (Herbicidal ratio of 5% or higher and lower than 20%). Besides, the “d: soybean, effect grade on crop” value with soybean [6] is on record as 0 (Herbicidal ratio of 5% or lower (almost no effect)). Further, the “b: directly sowed rice plant” value with rice was 5 (Herbicidal ratio of 90% or more (almost completely withered)). In the data set on wheat, the “e: wheat, effect grade on crop” value is given as 0 (Herbicidal ratio of 5% or lower (almost no effect)). Moreover, the “G: Setaria viridis … (criteria 0-5)” value with Setaria viridis [7] is 5 (Herbicidal ratio of 90% or more (almost completely withered)). The “I: Avena fatua, herbicidal effect” value in the data set on Avena fatua is 5 (Herbicidal ratio of 90% or more (almost completely withered)). Further, the “J: Alopecurus myosuroides, herbicidal effect (criteria 0-5)” value with Alopecurus myosuroides [8] is listed as 5 (Herbicidal ratio of 90% or more (almost completely withered)). In addition, the “K: Lolium multiflorum Lam., herbicidal effect (criteria 0-5)” value in the data set with Lolium multiflorum Lam. [9] is listed as 5 (Herbicidal ratio of 90% or more (almost completely withered)). The “N: Amaranthus retroflexus” value in the data set with Amaranthus retroflexus was 0 (Herbicidal ratio of 5% or lower (almost no effect)). In the data set on Veronica persica [10], the “R: Veronica persica … (criteria 0-5)” value was 3 (Herbicidal ratio of 40% or higher and lower than 70%). Further, the “d: soybean, effect on crop” value with soybean [11] was 2 (Herbicidal ratio of 20% or higher and lower than 40%).
